This note sets out measurements from patent US5401761A, “Thiazolidinedione hypoglycemic agents” (Pfizer, Inc., priority 1993, dated 1995).

The test system of this assay is OB/OB MOUSE. Put plainly: Hypoglycemic activity in the ob/ob mouse. It counts as in vivo, mouse (C57 BL/6J-ob/ob). The note with it: for ED50 (Present Invention, X = H): concentration required to give hypoglycemic activity equivalent to 50% of the positive control / ED50 (EP 299620A, X = OH): concentration required to give hypoglycemic activity equivalent to 50% of the positive control: ob/ob mouse, dosed daily for five days, positive control ciglitazone 50 mg/kg, 7200 min. An excerpt: The present compounds of the formula (I) are readily adapted to clinical use as hypoglycemic or hypocholesterolemic agents. The activity required for the former clinical use is defined by the test for hypoglycemic effect in ob/ob mice by the following procedure:
Five to eight week old C57 BL/6J-ob/ob mice (obtained from Jackson Laboratory, Bar Harbor, Me.) were housed five per cage under standard animal care practices. After a one week acclimation period, the animals were weighed and 25 microliters of blood was collected via an ocular bleed prior to any treatment. The blood sample was immediately diluted 1:5 with saline containing 2.5 mg/ml sodium fluoride and 2% sodium heparin, and held on ice for metabolite analysis. […] Bull., vol. […] All drugs were administered in a vehicle consisting of 0.25% w/v methyl cellulose. On day 5, the animals were weighed again and bled (via the ocular route) for blood metabolite levels. The freshly collected samples were centrifuged for two minutes at […] at room temperature. The supernatant was analyzed for glucose, for example, by the ABA 200 Bichromatic Analyzer™*, using the A-gent™^1 glucose UV reagent system*^2 (hexokinase method) using 20, 60 and 100 mg/dl standards. Plasma glucose was then calculated by the equation,
Test compounds are reported in terms of % glucose normalization. For example, a glucose level which is the same as the positive control is reported as 100%.

Molecules are shown by their SMILES.

As to `Cc1oc(C2CCCCC2)nc1Cc1cc2cc(CC3SC(=O)NC3=O)ccc2o1` (stereo not drawn) [cyclohexyl, X = H, 5-[(2-(2-cyclohexyl-5-methyl-4-oxazolyl)methyl)-5-benzofuranylmethyl]-2,4-thiazolidinedione], the “ED50 (Present Invention, X = H): concentration required to give hypoglycemic activity equivalent to 50% of the positive control” value worked out at 0.05 mg/kg.
Still for that read-out and setting: the same measure for `Cc1oc(-c2cccc(F)c2)nc1Cc1cc2cc(CC3SC(=O)NC3=O)ccc2o1` (stereo not drawn) [m-fluorophenyl, X = H, 5-[(2-(2-(3-fluorophenyl)-5-methyl-4-oxazolyl)methyl)-5-benzofuranylmethyl]-2,4-thiazolidinedione]: 0.05 mg/kg.
In the case of `Cc1oc(-c2cccc(F)c2)nc1C(O)c1cc2cc(CC3SC(=O)NC3=O)ccc2o1` (stereo not drawn) [m-fluorophenyl, X = OH, reference compound], the “ED50 (EP 299620A, X = OH): concentration required to give hypoglycemic activity equivalent to 50% of the positive control” value amounted to 0.50 mg/kg.
Take `Cc1cccc(-c2nc(Cc3cc4cc(CC5SC(=O)NC5=O)ccc4o3)c(C)o2)c1` (stereo not drawn) [m-methylphenyl, X = H, 5-[(2-(5-methyl-2-(3-methylphenyl)-4-oxazolyl)-methyl)-5-benzofuranylmethyl]2,4-thiazolidinedione]: the “ED50 (Present Invention, X = H): concentration required to give hypoglycemic activity equivalent to 50% of the positive control” value is reported as under 0.005 mg/kg.
Regarding `Cc1cccc(-c2nc(C(O)c3cc4cc(CC5SC(=O)NC5=O)ccc4o3)c(C)o2)c1` (stereo not drawn) [m-methylphenyl, X = OH, reference compound], the “ED50 (EP 299620A, X = OH): concentration required to give hypoglycemic activity equivalent to 50% of the positive control” value fell in the range of 0.05 to 0.1 mg/kg.
As to `Cc1oc(-c2ccccc2F)nc1Cc1cc2cc(CC3SC(=O)NC3=O)ccc2o1` (stereo not drawn) [o-fluorophenyl, X = H, 5-[(2-(2-(2-fluorophenyl)-5-methyl-4-oxazolyl)methyl)-5-benzofuranylmethyl]-2,4-thiazolidinedione], the “ED50 (Present Invention, X = H): concentration required to give hypoglycemic activity equivalent to 50% of the positive control” value is recorded as 0.01 mg/kg.
`Cc1oc(-c2ccccc2F)nc1C(O)c1cc2cc(CC3SC(=O)NC3=O)ccc2o1` (stereo not drawn) [o-fluorophenyl, X = OH, reference compound]: the “ED50 (EP 299620A, X = OH): concentration required to give hypoglycemic activity equivalent to 50% of the positive control” value worked out at 0.50 mg/kg.
Turning to `Cc1ccccc1-c1nc(Cc2cc3cc(CC4SC(=O)NC4=O)ccc3o2)c(C)o1` (stereo not drawn) [o-methylphenyl, X = H], the “ED50 (Present Invention, X = H): concentration required to give hypoglycemic activity equivalent to 50% of the positive control” value was 0.05 mg/kg.
In the case of `Cc1ccccc1-c1nc(C(O)c2cc3cc(CC4SC(=O)NC4=O)ccc3o2)c(C)o1` (stereo not drawn) [o-methylphenyl, X = OH, reference compound], the “ED50 (EP 299620A, X = OH): concentration required to give hypoglycemic activity equivalent to 50% of the positive control” value was over 1 mg/kg.
Consider `Cc1oc(-c2ccc(Cl)cc2)nc1Cc1cc2cc(CC3SC(=O)NC3=O)ccc2o1` (stereo not drawn) [p-chlorophenyl, X = H, 5-[(2-(2-(4-chlorophenyl)-5-methyl-4-oxazolyl)methyl)-5-benzofuranylmethyl]-2,4thiazolidinedione], for which the “ED50 (Present Invention, X = H): concentration required to give hypoglycemic activity equivalent to 50% of the positive control” value was 0.05 mg/kg.
On the same count and under the same terms, as for `Cc1ccc(-c2nc(Cc3cc4cc(CC5SC(=O)NC5=O)ccc4o3)c(C)o2)cc1` (stereo not drawn) [p-methylphenyl, X = H, 5-[(2-(5-methyl-2-(4-methylphenyl)-4-oxazolyl)-methyl)-5-benzofuranylmethyl]-2,4-thiazolidinedione], the figure is 0.05 mg/kg; as for `Cc1oc(-c2ccccc2)nc1Cc1cc2cc(CC3SC(=O)NC3=O)ccc2o1` (stereo not drawn) [phenyl, X = H, 5-[(2-(5-Methyl-2-phenyl-4-oxazolyl)methyl)-5-benzofuranylmethyl]-2,4-thiazolidinedione], 0.01 mg/kg.
Turning to `Cc1oc(-c2ccccc2)nc1C(O)c1cc2cc(CC3SC(=O)NC3=O)ccc2o1` (stereo not drawn) [phenyl, X = OH, 5-[(2-(5-Methyl-2-phenyl-4-oxazolyl)hydroxymethyl)-5-benzofuranylmethyl]-2,4-thiazolidinedione, reference compound], the “ED50 (EP 299620A, X = OH): concentration required to give hypoglycemic activity equivalent to 50% of the positive control” value is 0.25 mg/kg.
Turning to `CC1(COc2ccc(CC3SC(=O)NC3=O)cc2)CCCCC1` (stereo not drawn) [positive control, ciglitazone, reference compound], the “glucose level of positive control animals” value (positive control (50 mg/kg) of ciglitazone, daily for five days, vehicle e.g. 250 mg/dl) is about 130 mg/dL.
For `Cc1oc(C(C)(C)C)nc1Cc1cc2cc(CC3SC(=O)NC3=O)ccc2o1` (stereo not drawn) [tert-butyl, X = H, 5-[(2-(5-methyl-2-(1,1-dimethylethyl)-4-oxazolyl)-methyl)-5-benzofuranylmethyl]-2,4-thiazolidinedione], the “ED50 (Present Invention, X = H): concentration required to give hypoglycemic activity equivalent to 50% of the positive control” value was determined as 0.10 mg/kg.
